Assay results from patent US7161064B2, “Method for producing stably transformed duckweed using microprojectile bombardment” (North Carolina State University, priority 1997, dated 2007).

Columns and labels:
Type in all cases: cell-based
Lemna gibba G3 = assay: Callus induction from Lemna gibba G3 fronds on solid medium with plant growth regulators
Description: Duckweed fronds were grown in liquid Hoagland's medium (Hoagland and Snyder, Proc. Amer. Soc. Hort. Sci. 30, 288 (1933)) containing 3% sucrose for two weeks at 23° C. under a 16 hr light/8 hr dark photoperiod with light intensity of approximately 40 μmol/m^2·sec prior to experimentation. For callus induction, eighteen, 100 ml portions of Murashige and Skoog basal medium (Murashige and Skoog, Physiol. Plant. 15, 473 (1962)) containing 3% sucrose, 0.15% Gelrite and 0.4% Difco Bacto-agar were prepared with 2,4-D concentrations of 10, 20 and 50 μM and BA concentrations of 0, 0.01, 0.1, 1.0, 2.0, and 10.0 μM. All media were pH adjusted to 5.8, autoclaved at 121° C. for 20 minutes, cooled, and each 100 ml was poured into 4, 100 mm×15 mm petri dishes.
(§1) A three 2,4-D concentrations×six BA concentrations, full-factorial experimental design (18 treatments in total) with four replications, with one petri dish per replication and 5 fronds per petri dish was used. For callus induction, 5 individual duckweed fronds were placed abaxial side down on each plate of medium. The 72 plates were incubated at 23° C., for 27 days under a 16 hr light/8 hr dark photoperiod with light intensity of approximately 40 μmol/m^2·sec. After 27 days the duckweed tissue was transferred to fresh media of the same type and incubation was continued another 35 days under the same temperature and light culturing conditions.
Duckweed fronds were grown in liquid Hoagland's medium containing 3% sucrose for two weeks at 23° C. under a 16 hr light/8 hr dark photoperiod with light intensity of approximately 40 μmol/m^2·sec. prior to experimentation. For callus induction, forty 100 ml portions of Murashige and Skoog medium with 3% sucrose, 0.15% Gelrite, and 0.4% Difco Bacto-agar were prepared with dicamba concentrations of 10, 20, 30, 40, 50, 60, 80, 100 μM and BA concentrations of 0.01, 0.05, 0.1, 0.5, and 1.0 μM. All media were pH adjusted to 5.8, autoclaved at 121° C. for 20 minutes, cooled, and each 100 ml was poured into 4, 100 mm×15 mm petri dishes.
as §1, with “An eight dicamba concentrations×five BA” for “A three 2,4-D concentrations×six BA”, “design (40” for “design (18”, “The” for “The 72”, “After 28” for “After 27”, “another 45” for “another 35”
Duckweed fronds were grown in liquid Schenk and Hildebrandt medium containing 1% sucrose for two weeks at 23° C. under a 16 hr light/8 hr dark photoperiod with light intensity of approximately 40 μmol/m^2·sec prior to experimentation. For callus induction, three basal media were tested: Murashige and Skoog, Schenk and Hildebrandt, and N6. Benzyladenine was used as the cytokinin at a concentration of 1 μM. The auxin concentrations varied with auxin type. For the relatively strong auxins, 2,4-D and dicamba, concentrations were 0, 1, 5, 10 and 20 μM. For weak auxins, NAA and IBA, the concentrations were 0, 5, 10, 20 and 50 μM. For each medium dose-response experiment, 2 liters of basal medium were prepared with BA and the pH adjusted to 5.8. The volume was aliquoted as 20, 100 ml portions. To each of these portions, the appropriate amount of auxin was added and the medium was adjusted to 0.15% Gelrite, and 0.4% Difco Bacto-agar. The media were autoclaved for 30 minutes at 121° C., cooled and 4, 100 mm×15 mm petri dishes were poured from each 100 ml portion.
A 3 media×4 auxin×5 concentration combinations, 60 treatment, randomized dose-response experimental design was used. The design was replicated two times, with one petri dish per replication and 5 fronds per petri dish.

[1] = system: L. minor strains 8744 and 8627; assay: Callus induction from Lemna minor fronds, auxin and cytokinin type and concentration; conditions: MS medium, 6 weeks
Description: In the auxin type and concentration experiment, four auxins: 2,4-D, NAA, IBA and dicamba were tested, each at four concentrations: 2, 5, 10 and 20 μM, for their ability to induce callus formation from L. minor strains 8744 and 8627. The basal medium used was MS and media and experimental protocol was basically that followed in Example 10. Fronds used in this experiment were grown for 2 weeks prior to plating on callus induction medium under 3 different culture conditions: 1) SH medium without plant growth regulators, 2) F medium with 24 μM 2,4-D and 2 μM 2-iP, and 3) SH medium with 24 μM 2,4-D and 2 μM 2-iP. Fronds were separated, the roots cut off and then plated on induction medium. The fronds were incubated under conditions given in Example 8 for 6 weeks at which time cultures were evaluated for the presence or absence of callus induction, the degree to which the callus proliferated, and the basic morphology of the callus present.
In the cytokinin type and concentration experiment, four cytokinins: BA, kinetin, 2-iP, and thidiazuron were tested, each at five concentrations: 0.05, 0.1, 0.5, 1 and 5 μM, for their ability to induce callus formation from L. minor strains 8744 and 8627. The basal medium used was MS and the media and experimental protocol were basically as described in Example 11. Fronds used in this experiment were grown for 2 weeks prior to plating on callus induction medium under 3 different culture conditions: 1) SH medium without plant growth regulators, 2) F medium with 24 μM 2,4-D and 2 μM 2-iP, and 3) SH medium with 24 μM 2,4-D and 2 μM 2-iP. Fronds were separated, the roots cut off and then plated on induction medium. The fronds were incubated under conditions given in Example 8 for 6 weeks at which time cultures were evaluated for the presence or absence of callus induction, the degree to which the callus proliferated, and the basic morphology of the callus.

Spirodela species = assay: Callus induction screen across Lemnaceae strains, frond health; conditions: 4-5 weeks
Description: Duckweed fronds were grown in liquid Schenk and Hildebrandt medium containing 1% sucrose for two weeks at 23° C. under a 16 hr light/8 hr dark photoperiod with light intensity of approximately 40 μmol/m^2·sec prior to experimentation. For callus induction, six basal media were used: Murashige and Skoog, Schenk and Hildebrand (Schenk and Hildebrandt, Can. J. Bot. 50, 199 (1972)), Nitsch and Nitsch, N6 (Chu et al., Scientia Sinica 18, 659 (1975)), Gamborg's B5, and Hoagland's. The two plant growth regulator combinations known to elicit callus proliferation in L. gibba G3 were used: 30 μM 2,4-D and 0.02 μM BA, and 5 μM 2,4-D and 2 μM BA. For each strain, 200 ml of each basal medium was prepared with 3% sucrose, 0.15% Gelrite, and 0.4% Difco Bacto-agar. The 200 ml was divided into 2, 100 ml portions, each to be used to prepare the two plant growth regulator concentrations. The pH of all media was adjusted to 5.8, the media were autoclaved for 30 minutes at 121° C., cooled and 4, 100 mm×15 mm petri dishes were poured from each 100 ml portion.
A 6 media×2 plant growth regulator combinations, 12 treatment, random block experimental design was used for each duckweed strain tested. […] At this time the fronds were evaluated for general health (judged by color: green to yellow, and vigor of proliferation) and the frequency of callus initiation of the three types: Type I, Type II, and Type III.

With `O=C(O)COc1ccc(Cl)cc1Cl` [2,4-D, 2,4-dichlorophenoxyacetic acid] as the compound, how does the “concentrations at which callus proliferation was the most vigorous” value (Lemna gibba G3; 2,4-D x BA factorial, Murashige and Skoog medium, 62 days) read?
The value was 20 to 50 µM.

And the “compact Type I callus induction on MS medium” value (Lemna gibba G3; auxin with 1 μM BA, five weeks)?
The value was “some degree of callus induction”.

And the “compact Type I callus induction on N6 medium” value (Lemna gibba G3; auxin with 1 μM BA, five weeks)?
The value was “produced callus”.

And the “concentration giving the best callus induction” value ([1]; strain 8627, auxin experiment)?
Its value is 5 µM.

What about the “concentration giving the best callus induction” value ([1]; strain 8744, auxin experiment) of the same compound?
The value was 5 µM.

And the frond survival (Spirodela species; higher concentration of 2,4-D (30 μM with 0.02 μM BA))?
The frond survival was “did not survive”.

What about the frond growth (Spirodela species; lower concentration of 2,4-D (5 μM with 2 μM BA)) of the same compound?
Its frond growth is “did not grow well”.
